Test [1] has as its system Escherichia coli BMTU 3294. Description: Lysis of microbial cells in suspension, microscopic assessment (SYTO 9 staining): Gram-negative. It counts as cell-based. The following applies: for lysis of Gram-negative cell walls, summary in words: reagent and concentration as in Tables 1 and 2 (Example 4). The procedure:
(§1) Cell suspensions containing between about 10^7 and about 10^8 cells/ml were prepared.
(§2) The LIVE/DEAD® BacLight Bacterial Viability Kits supplied by Invitrogen utilize mixtures of the SYTO® 9 green-fluorescent nucleic acid stain (Invitrogen) and the red-fluorescent nucleic acid stain, propidium iodide. These stains differ both in their spectral characteristics and in their ability to penetrate healthy bacterial cells. When used alone, the SYTO® 9 stain generally labels all bacteria in a population—those with intact membranes and those with damaged membranes. In contrast, propidium iodide penetrates only bacteria with damaged membranes, causing a reduction in the SYTO® 9 stain fluorescence when both dyes are present.
(§3) Each mixture was incubated for 15 min at 56° C.
(§4) For the lysis experiments, all possible combinations of lysis buffers L1.1 to L11.1 with cell suspensions (A), (B), and (C) were examined.
(§5) An incubated cell suspension with bacteria was scored as a “positive” lysate if in the incubated mixture SYTO® 9 stainable morphological structures corresponding to the respective bacterial cells were not detectable. Otherwise, when SYTO® 9 stainable morphological structures were still present, the incubated cell suspension was scored as “negative”. In an analogous way, a cell suspension with yeast cells was scored, however based on Calcofluor™ White M2R staining.
(§6) In each experiment a direct comparison was made using the fluorescent label on an untreated but similarly diluted cell suspension as a reference. In order to exclude any influence of a compound in the lysis reagents on fluorescence, any presence or absence of morphological structures corresponding to the respective microbial cells was verified using light microscopy.

For test [2], the system named is Staphylococcus carnosus BMTU 7329. In words: Lysis of microbial cells in suspension, microscopic assessment (SYTO 9 staining): Gram-positive. It counts as cell-based. The following applies: for lysis of Gram-positive cell walls, summary in words: reagent and concentration as in Tables 1 and 2 (Example 4). The procedure: as §1, §2, §3, §4, §5, §6
Setting [3] is: about 2.25 M in the mixture with the bacterial suspension.

“1-butyl-3-methyl-imidazolium-2(2-methoxyethoxy)ethylsulfate [ECOENG™41M]”: the “concentration required to destroy Gram-negative cell walls together with Gram-positive, relative to BMIM-SCN (about 2.25 M in the mixture)” value in test [1] (lysis reagent L2.1) is recorded as “a quarter of this concentration”. Further, in test [1], the “lysis of Gram-negative cell walls, summary in words” value was “destroy the cell walls of both Gram-positive and Gram-negative cells”. Further, the “concentration required to destroy Gram-positive cell walls, relative to BMIM-SCN (about 2.25 M in the mixture)” value in test [2] (lysis reagent L2.1) was “a quarter of this concentration”. Further, in test [2], the “lysis of Gram-positive cell walls, summary in words” value is “destroy the cell walls of both Gram-positive and Gram-negative cells”.

Regarding “1-butyl-3-methyl-imidazolium-thiocyanate [BMIM-SCN]”, the “destruction of Gram-negative cell walls” value is given as “falls short of destroying bacterial cell walls” in test [1] (375 mM in the mixture), “lysed” in test [1] (about 562.5 mM in the mixture) and “destroyed” in test [1] (setting [3]). Also, in test [1], the “lysis of Gram-negative cell walls, summary in words” value was “destroy the cell walls of both Gram-positive and Gram-negative cells”. The “destruction of Gram-positive cell walls” value in test [2] (375 mM in the mixture) was “falls short of destroying bacterial cell walls”; in test [2] (setting [3]) it was “destroyed”. The “lysis of Gram-positive cell walls, summary in words” value in test [2] was “destroy the cell walls of both Gram-positive and Gram-negative cells”.

Turning to “1-butyl-3-methyl-imidazolium-octylsulfate”, the “destruction of Gram-negative cell walls” value in test [1] (247.5 mM (or lower)) is reported as “falls short of destroying bacterial cell walls”; in test [1] (higher than 247.5 mM and up to 375 mM), “capable of destroying the cell walls of Gram-negative bacteria”. Further, the entries for the “destruction of Gram-positive cell walls” value in test [2] (247.5 mM (or lower)) and in test [2] (any concentration tested) were “falls short of destroying bacterial cell walls” and “no concentration was found”, respectively.

On to `Cc1ccc(S(=O)(=O)[O-])cc1.Cc1ccc(S(=O)(=O)[O-])cc1.Cn1cc[n+](CCCC[n+]2ccn(C)c2)c1` [MITS, 1-methyl-1-[4-(3-methyl-3H-imidazol-1-ium)-but-1-yl]-3H-imidazolium-di(toluylsulfate)], for which, in test [1] (247.5 mM (or lower)), the “destruction of Gram-negative cell walls” value is “neither Gram-negative nor Gram-positive cell walls were destroyed”. Moreover, the “destruction of Gram-positive cell walls” value was “neither Gram-negative nor Gram-positive cell walls were destroyed” in test [2] (247.5 mM (or lower)) and “destruction of Gram-positive cell walls” in test [2] (247.5 mM increased by about 50% or more).

As for `N#CS.N=C(N)N` [GuaSCN, Guanidine thiocyanate, reference compound], the “destruction of Gram-negative cell walls” value in test [1] (375 mM in the mixture) is given as “ineffective”; in test [1] (setting [3]), “destroyed”. Besides, the “destruction of Gram-positive cell walls” value in test [2] (375 mM in the mixture) is on record as “ineffective”; in test [2] (setting [3]) it was “destroyed”.

The record behind these values is patent US20160264925A1, “Reagents for Lysis of Bacterial Cells” (Roche Diagnostics Operations, Inc., priority 2009, published 2016).
